# Measured values published in PubChem BioAssay (NCI).
#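 Assay format: 96-well plates, 48-hour exposure. At the GI50, growth is halved. TGI is the concentration that stops growth completely.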
# Assays:
# Assay in all cases: inhibition of tumour cell growth, NCI panel, 48 h
# T-47D breast = test system: T-47D breast
# SK-OV-3 ovarian = test system: SK-OV-3 ovarian
# MDA-MB-231 breast = test system: MDA-MB-231 breast
# RXF 393 renal = test system: RXF 393 renal
# 786-0 renal = test system: 786-0 renal
# NCI-H522 lung = test system: NCI-H522 lung
# HOP-62 NSCLC = test system: HOP-62 NSCLC
# LOX IMVI melanoma = test system: LOX IMVI melanoma
# SK-MEL-5 melanoma = test system: SK-MEL-5 melanoma
# SNB-75 CNS = test system: SNB-75 CNS
# KM12 colon = test system: KM12 colon
# IGROV1 ovarian = test system: IGROV1 ovarian
# SK-MEL-28 melanoma = test system: SK-MEL-28 melanoma
# OVCAR-8 ovarian = test system: OVCAR-8 ovarian
# UACC-62 melanoma = test system: UACC-62 melanoma
# HCT-116 colon = test system: HCT-116 colon
# HOP-92 NSCLC = test system: HOP-92 NSCLC
# NCI-H23 lung = test system: NCI-H23 lung
# A549 NSCLC = test system: A549 NSCLC
# EKVX NSCLC = test system: EKVX NSCLC
# HL-60(TB) leukemia = test system: HL-60(TB) leukemia
# ACHN renal = test system: ACHN renal
# UO-31 renal = test system: UO-31 renal
# HT29 colon = test system: HT29 colon
# SR leukemia = test system: SR leukemia
# HCC-2998 colon = test system: HCC-2998 colon
# MCF7 breast = test system: MCF7 breast
# OVCAR-4 ovarian = test system: OVCAR-4 ovarian
# OVCAR-5 ovarian = test system: OVCAR-5 ovarian
# SW-620 colon = test system: SW-620 colon
# PC-3 prostate = test system: PC-3 prostate
# SF-295 CNS = test system: SF-295 CNS
# SK-MEL-2 melanoma = test system: SK-MEL-2 melanoma
# NCI-H226 lung = test system: NCI-H226 lung
# NCI/ADR-RES ovarian = test system: NCI/ADR-RES ovarian
# HS 578T breast = test system: HS 578T breast
# MOLT-4 leukemia = test system: MOLT-4 leukemia
# SNB-19 CNS = test system: SNB-19 CNS
# TK-10 renal = test system: TK-10 renal
# M14 melanoma = test system: M14 melanoma
# CCRF-CEM leukemia = test system: CCRF-CEM leukemia
# OVCAR-3 ovarian = test system: OVCAR-3 ovarian
# UACC-257 melanoma = test system: UACC-257 melanoma
# NCI-H460 lung = test system: NCI-H460 lung
# CAKI-1 renal = test system: CAKI-1 renal
# BT-549 breast = test system: BT-549 breast
# DU-145 prostate = test system: DU-145 prostate
# A498 renal = test system: A498 renal
# K-562 leukemia = test system: K-562 leukemia
# SN12C renal = test system: SN12C renal
# HCT-15 colon = test system: HCT-15 colon
# COLO 205 colon = test system: COLO 205 colon
# MALME-3M melanoma = test system: MALME-3M melanoma
# SF-268 CNS = test system: SF-268 CNS
# U251 CNS = test system: U251 CNS
# SF-539 CNS = test system: SF-539 CNS
# RPMI-8226 leukemia = test system: RPMI-8226 leukemia
compound,measurement,setting,value
Cc1ccc(C(=O)N/N=C/c2cccc(Oc3ccccc3)c2)cn1,GI50,T-47D breast,6.3 µM
same,TGI,T-47D breast,> 74.3 µM
same,GI50,SK-OV-3 ovarian,13 µM
same,TGI,SK-OV-3 ovarian,> 100 µM
same,GI50,MDA-MB-231 breast,22.9 µM
same,TGI,MDA-MB-231 breast,> 100 µM
same,GI50,RXF 393 renal,18.9 µM
same,TGI,RXF 393 renal,> 100 µM
same,GI50,786-0 renal,29.1 µM
same,TGI,786-0 renal,> 100 µM
same,GI50,NCI-H522 lung,7.38 µM
same,TGI,NCI-H522 lung,> 69.8 µM
same,GI50,HOP-62 NSCLC,60.2 µM
same,TGI,HOP-62 NSCLC,> 100 µM
same,GI50,LOX IMVI melanoma,8.54 µM
same,TGI,LOX IMVI melanoma,> 100 µM
same,GI50,SK-MEL-5 melanoma,5.21 µM
same,TGI,SK-MEL-5 melanoma,> 100 µM
same,GI50,SNB-75 CNS,4.85 µM
same,TGI,SNB-75 CNS,> 60.7 µM
same,GI50,KM12 colon,3.69 µM
same,TGI,KM12 colon,> 100 µM
same,GI50,IGROV1 ovarian,19 µM
same,TGI,IGROV1 ovarian,> 100 µM
same,GI50,SK-MEL-28 melanoma,27.3 µM
same,TGI,SK-MEL-28 melanoma,> 100 µM
same,GI50,OVCAR-8 ovarian,15.8 µM
same,TGI,OVCAR-8 ovarian,> 100 µM
same,GI50,UACC-62 melanoma,4.67 µM
same,TGI,UACC-62 melanoma,> 100 µM
same,GI50,HCT-116 colon,4.69 µM
same,TGI,HCT-116 colon,> 100 µM
same,GI50,HOP-92 NSCLC,12.7 µM
same,TGI,HOP-92 NSCLC,> 100 µM
same,GI50,NCI-H23 lung,26.6 µM
same,TGI,NCI-H23 lung,> 100 µM
same,GI50,A549 NSCLC,17 µM
same,TGI,A549 NSCLC,> 100 µM
same,GI50,EKVX NSCLC,8.36 µM
same,TGI,EKVX NSCLC,> 100 µM
same,GI50,HL-60(TB) leukemia,1.8 µM
same,TGI,HL-60(TB) leukemia,5.77 µM
same,GI50,ACHN renal,45.9 µM
same,TGI,ACHN renal,> 100 µM
same,GI50,UO-31 renal,19.6 µM
same,TGI,UO-31 renal,> 100 µM
same,GI50,HT29 colon,3.25 µM
same,TGI,HT29 colon,> 100 µM
same,GI50,SR leukemia,1.01 µM
same,TGI,SR leukemia,20.7 µM
same,GI50,HCC-2998 colon,16.1 µM
same,TGI,HCC-2998 colon,> 100 µM
same,GI50,MCF7 breast,3.48 µM
same,TGI,MCF7 breast,> 100 µM
same,GI50,OVCAR-4 ovarian,26.6 µM
same,TGI,OVCAR-4 ovarian,> 100 µM
same,GI50,OVCAR-5 ovarian,> 100 µM
same,TGI,OVCAR-5 ovarian,> 100 µM
same,GI50,SW-620 colon,4.79 µM
same,TGI,SW-620 colon,> 100 µM
same,GI50,PC-3 prostate,7.75 µM
same,TGI,PC-3 prostate,> 100 µM
same,GI50,SF-295 CNS,3.36 µM
same,TGI,SF-295 CNS,> 36.5 µM
same,GI50,SK-MEL-2 melanoma,> 24.6 µM
same,TGI,SK-MEL-2 melanoma,> 100 µM
same,GI50,NCI-H226 lung,> 64.5 µM
same,TGI,NCI-H226 lung,> 100 µM
same,GI50,NCI/ADR-RES ovarian,4.43 µM
same,TGI,NCI/ADR-RES ovarian,> 71.4 µM
same,GI50,HS 578T breast,6.74 µM
same,TGI,HS 578T breast,> 100 µM
same,GI50,MOLT-4 leukemia,3.83 µM
same,TGI,MOLT-4 leukemia,34.5 µM
same,GI50,SNB-19 CNS,10.3 µM
same,TGI,SNB-19 CNS,> 100 µM
same,GI50,TK-10 renal,14.4 µM
same,TGI,TK-10 renal,> 100 µM
same,GI50,M14 melanoma,6.08 µM
same,TGI,M14 melanoma,> 100 µM
same,GI50,CCRF-CEM leukemia,4.25 µM
same,TGI,CCRF-CEM leukemia,> 100 µM
same,GI50,OVCAR-3 ovarian,5.96 µM
same,TGI,OVCAR-3 ovarian,> 100 µM
same,GI50,UACC-257 melanoma,> 56.3 µM
same,TGI,UACC-257 melanoma,> 100 µM
same,GI50,NCI-H460 lung,4.05 µM
same,TGI,NCI-H460 lung,> 100 µM
same,GI50,CAKI-1 renal,4.41 µM
same,TGI,CAKI-1 renal,> 100 µM
same,GI50,BT-549 breast,5.37 µM
same,TGI,BT-549 breast,> 55.6 µM
same,GI50,DU-145 prostate,18.7 µM
same,TGI,DU-145 prostate,> 100 µM
same,GI50,A498 renal,9.99 µM
same,TGI,A498 renal,> 100 µM
same,GI50,K-562 leukemia,1.81 µM
same,TGI,K-562 leukemia,> 100 µM
same,GI50,SN12C renal,17.3 µM
same,TGI,SN12C renal,> 100 µM
same,GI50,HCT-15 colon,3.89 µM
same,TGI,HCT-15 colon,> 100 µM
same,GI50,COLO 205 colon,5.66 µM
same,TGI,COLO 205 colon,38.1 µM
same,GI50,MALME-3M melanoma,9.14 µM
same,TGI,MALME-3M melanoma,> 100 µM
same,GI50,SF-268 CNS,34.5 µM
same,TGI,SF-268 CNS,> 100 µM
same,GI50,U251 CNS,6.03 µM
same,TGI,U251 CNS,> 100 µM
same,GI50,SF-539 CNS,10.6 µM
same,TGI,SF-539 CNS,> 59.1 µM
same,GI50,RPMI-8226 leukemia,2.66 µM
same,TGI,RPMI-8226 leukemia,8.58 µM
